# Values quoted from earlier work as cited in patent US7390505B2, “Nanoparticulate topiramate formulations” (Elan Pharma International, Ltd., priority 2003, dated 2008).
# How the values were obtained:
# [1] = human, in vivo
# [2] = not given; remark: listed apart in the source
structure (smiles),measurement,setting,value
"CC1(C)O[C@@H]2[C@@H](CO[C@@]3(COS(N)(=O)=O)OC(C)(C)O[C@@H]23)O1 [Topiramate, 2,3:4,5-Di-O-isopropylidene-β-D-fructopyranose sulfamate]","incidence of ataxia, impaired concentration, confusion, dizziness, fatigue, paraesthesia, somnolence and abnormal thinking",[1],≥ 5 % of patients
same,patients who withdrew because of side effects,96 mg/d or 192 mg/d,19%
same,withdrawal due to depression,in vivo,3%
same,withdrawal due to difficulty with memory,in vivo,3%
same,withdrawal due to paraesthesia,in vivo,5 % of patients
same,solubility in organic solvents,"[2]; acetone, chloroform, dimethylsulfoxide, and ethanol",freely soluble
same,solubility in alkaline solutions,"[2]; solutions containing sodium hydroxide or sodium phosphate, pH of 9 to 10",most soluble
